# Measurements as given in ChEMBL document CHEMBL5625206, “Design, synthesis, and evaluation of novel pleuromutilin aryl acrylate derivatives as promising broad-spectrum antibiotics especially for combatting multi-drug resistant gram-negative bacteria” (Eur J Med Chem, 2023).
# Activity calls are given as the source filed them. The rule behind the calls is not given here.
# Tests used:
# Enterococcus = assay: Antibacterial activity against vancomycin-resistant Enterococcus 80 clinical isolate assessed as bacterial growth inhibition incubated for 24 hrs by CLSI based broth microdilution method; assay type: functional
# [1] = Toxicity in neutropenic Kunming mouse model infected with methicillin-resistant Staphylococcus aureus ATCC 33591 assessed as survival rate at 10 mg/kg, ip measured after 7 days relative to control; assay type: organism-based; conditions: in vivo, 168 h, time 7 day
# Staphylococcus aureus = assay: Antibacterial activity against methicillin-resistant Staphylococcus aureus ATCC 33591 infected in neutropenic Kunming mouse model assessed as reduction in infection-induced inflammatory cell infiltration in lung at 20 mg/kg, ip measured after 7 days; assay type: functional, organism-based; conditions: time 7.0 day
# [2] = Toxicity in fasted male Sprague-Dawley rat assessed as body weight at 331 mg/kg, IG measured on same day (reference value: 212.7 +/- 13.2 g); assay type: organism-based; conditions: in vivo, po
# [3] = Toxicity in fasted male Sprague-Dawley rat assessed as body weight at 224 mg/kg, IG measured after 7 days (reference value: 260.5 +/- 12.7 g); assay type: organism-based; conditions: in vivo, po, 168 h, time 7 day
# [4] = Toxicity in fasted male Sprague-Dawley rat assessed as body weight at 500 mg/kg, IG measured after 14 days (reference value: 311.2 +/- 13.6 g); assay type: organism-based; conditions: in vivo, po, 336 h, time 14 day
# [5] = Toxicity in fasted male Sprague-Dawley rat assessed as relative liver weight ratio at 331 mg/kg, IG measured for 14 days (reference value: 3.616 +/- 0.286); assay type: organism-based; conditions: in vivo, po, 336 h, time 14 day
# [6] = Toxicity in fasted male Sprague-Dawley rat assessed as relative liver weight ratio at 500 mg/kg, IG measured for 14 days (reference value: 3.616 +/- 0.286); assay type: organism-based; conditions: in vivo, po, 336 h, time 14 day
# [7] = Toxicity in fasted male Sprague-Dawley rat assessed as relative heart weight ratio at 100 mg/kg, IG measured for 14 days (reference value: 0.396 +/- 0.043); assay type: organism-based; conditions: in vivo, po, 336 h, time 14 day
# [8] = Toxicity in fasted female Sprague-Dawley rat assessed as relative lung weight ratio at 100 mg/kg, IG measured for 14 days (reference value: 0.534 +/- 0025); assay type: organism-based; conditions: in vivo, po, 336 h, time 14 day
# [9] = Toxicity in fasted female Sprague-Dawley rat assessed as relative lung weight ratio at 224 mg/kg, IG measured for 14 days (reference value: 0.534 +/- 0025); assay type: organism-based; conditions: in vivo, po, 336 h, time 14 day
# [10] = Toxicity in fasted male Sprague-Dawley rat assessed as relative lung weight ratio at 500 mg/kg, IG measured for 14 days (reference value: 0.437 +/- 0.064); assay type: organism-based; conditions: in vivo, po, 336 h, time 14 day
# [11] = Toxicity in fasted female Sprague-Dawley rat assessed as relative spleen weight ratio at 224 mg/kg, IG measured for 14 days (reference value: 0.223 +/- 0.019); assay type: organism-based; conditions: in vivo, po, 336 h, time 14 day
smiles,measurement,setting,value
C=C[C@]1(C)C[C@@H](OC(=O)COC(=O)/C=C/c2ccc(N(C)C)cc2)[C@]2(C)[C@H](C)CC[C@]3(CCC(=O)[C@H]32)[C@@H](C)[C@@H]1O,MIC,Enterococcus,4 µg/mL
same,Survival,[1],70%
same,Activity,Staphylococcus aureus,Active
same,Activity,[2],217.4 g
same,Activity,[3],257.1 g
same,Activity,[4],296.8 g
same,Ratio,[5],3.528
same,Ratio,[6],3.551
same,Ratio,[7],0.396
same,Ratio,[8],0.522
same,Ratio,[9],0.531
same,Ratio,[10],0.399
same,Ratio,[11],0.249
